From US10315996B2, “ROR gamma (RORγ) modulators” (LEAD PHARMA HOLDING B.V., priority 2015, dated 2019)

Target: T1, RORγ (Homo sapiens, UniProt P51449)
T1 construct: expressed in transfected cells; host or cells: 293FT cells (Invitrogen), expression vector pFN26A (Promega)
T1 sequence (P51449 269-508 limits assumed): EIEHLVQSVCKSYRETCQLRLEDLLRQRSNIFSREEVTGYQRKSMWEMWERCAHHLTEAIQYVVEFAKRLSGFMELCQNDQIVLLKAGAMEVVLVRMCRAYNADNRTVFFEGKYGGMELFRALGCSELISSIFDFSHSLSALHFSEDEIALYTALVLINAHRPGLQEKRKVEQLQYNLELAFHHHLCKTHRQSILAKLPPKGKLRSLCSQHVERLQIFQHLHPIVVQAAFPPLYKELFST
Assay: RORγ GAL4 reporter gene assay
Type: cell-based
Settings: inhibition of RORγ activity, GAL4-RORγ-LBD luciferase reporter in 293FT cells, overnight incubation; read-out: mean pIC50 (converted)
Procedure, shortened: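 293FT cells were transiently co-transfected with GAL4-DBD–RORγ-LBD (or GAL4-VP16 control) and a 9×UAS luc2P reporter, then plated at 60,000 cells/well. Compound was added at final 0.2% DMSO for 16-24 h at 37 °C, and inhibition was measured by firefly luciferase luminescence.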

| IC50 | Structure (SMILES) |
| --- | --- |
| ≤ 100 nM | CCN(C(=O)c1ccc(NC(=O)Cc2ccc(S(=O)(=O)CC3CC3)cc2)cc1C)c1ccccc1 [Example 162, 4-[2-(4-cyclopropylmethanesulfonylphenyl)acetamido]-N-ethyl-2-methyl-N-phenylbenzamide] |
| ≤ 10 nM | CCCN(C(=O)c1ccc(NC(=O)Cc2ccc(S(=O)(=O)CC3CC3)cc2)cc1)c1ccccc1 [Example 19, 4-[2-(4-cyclopropylmethanesulfonylphenyl)acetamido]-N-phenyl-N-propylbenzamide] |
| ≤ 100 nM | CC(C)(C)C1COc2ccccc2N1C(=O)c1ccc(NC(=O)Cc2ccc(S(=O)(=O)CC3CC3)cc2)cc1 (stereo not drawn) [Example 121, N-[4-(3-tert-butyl-3,4-dihydro-2H-1,4-benzoxazine-4-carbonyl)phenyl]-2-(4-cyclopropylmethanesulfonylphenyl)acetamide] |
| ≤ 100 nM | CCN(C(=O)c1ccc(NC(=O)Cc2ccc(S(=O)(=O)CC3CC3)nc2)cc1Cl)c1ccccc1 [Example 157, 2-chloro-4-[2-(6-cyclopropylmethanesulfonylpyridin-3-yl)acetamido]-N-ethyl-N-phenylbenzamide] |
| ≤ 10 nM | CN(C(=O)c1ccc(NC(=O)Cc2ccc(S(=O)(=O)CC3CC3)cc2)cc1Cl)c1ccccc1F [Example 127, 2-chloro-4-[2-(4-cyclopropylmethanesulfonylphenyl)acetamido]-N-(2-fluorophenyl)-N-methylbenzamide] |
| ≤ 100 nM | CN(C(=O)c1ccc(NC(=O)Cc2ccc(S(=O)(=O)CC3CC3)cc2)cc1)c1ccccn1 [Example 17, 4-[2-(4-cyclopropylmethanesulfonylphenyl)acetamido]-N-methyl-N-(pyridin-2-yl)benzamide] |
| ≤ 10 nM | CN(C(=O)c1ccc(NC(=O)Cc2ccc(S(=O)(=O)CC3CC3)cc2)cc1)c1ccccc1 [Example 3, 4-[2-(4-cyclopropylmethanesulfonylphenyl)acetamido]-N-methyl-N-phenylbenzamide] |
| ≤ 1000 nM | CC(C)(CN1CCOCC1)NC(=O)c1ccc(NC(=O)Cc2ccc(S(=O)(=O)CC3CC3)cc2)cc1 [Example 60, 4-[2-(4-cyclopropylmethanesulfonylphenyl)acetamido]-N-[2-methyl-1-(morpholin-4-yl)propan-2-yl]benzamide] |
| ≤ 1000 nM | CCCNC(=O)c1ccc(NC(=O)Cc2ccc(S(=O)(=O)CC3CC3)cc2)cc1 [Example 1, 4-[2-(4-cyclopropylmethanesulfonylphenyl)acetamido]-N-propylbenzamide] |
| ≤ 1000 nM | CCN(C(=O)c1ccc(NC(=O)Cc2ccc(S(=O)(=O)NC3CC3)cc2)cc1)c1cccnc1 [Example 50, 4-{2-[4-(cyclopropylsulfamoyl)phenyl]acetamido}-N-ethyl-N-(pyridin-3-yl)benzamide] |
| ≤ 1000 nM | COCCN(C(=O)c1ccc(NC(=O)Cc2ccc(S(=O)(=O)CC3CC3)cc2)cc1)C1CC1 [Example 79, N-cyclopropyl-4-[[2-[4-(cyclopropylmethylsulfonyl)phenyl]acetyl]amino]-N-(2-methoxyethyl)benzamide] |
| ≤ 100 nM | CC(C)CN(CC(C)C)C(=O)c1ccc(NC(=O)Cc2ccc(S(=O)(=O)CC3CC3)cc2)cc1 [Example 15, 4-[2-(4-cyclopropylmethanesulfonylphenyl)acetamido]-N,N-bis(2-methylpropyl)benzamide] |
| ≤ 10 nM | O=C(Cc1ccc(S(=O)(=O)CC2CC2)cc1)Nc1ccc(C(=O)N2CCCc3ccccc32)cc1 [Example 40, 2-(4-cyclopropylmethanesulfonylphenyl)-N-[4-(1,2,3,4-tetrahydroquinoline-1-carbonyl)phenyl]acetamide] |
| ≤ 10 nM | Cc1cc(N(C)C(=O)c2ccc(NC(=O)Cc3ccc(S(=O)(=O)CC4CC4)cc3)cc2)no1 [Example 90, 4-[2-(4-cyclopropylmethanesulfonylphenyl)acetamido]-N-methyl-N-(5-methyl-1,2-oxazol-3-yl)benzamide] |
| ≤ 10 nM | O=C(Cc1ccc(S(=O)(=O)CC2CC2)cc1)Nc1ccc(C(=O)N(c2ccccc2)C2CC2)cc1 [Example 140, N-cyclopropyl-4-[2-(4-cyclopropylmethanesulfonylphenyl)acetamido]-N-phenylbenzamide] |
| ≤ 10 nM | CCCN(C(=O)c1ccc(NC(=O)Cc2ccc(S(=O)(=O)CC3CC3)cc2)cc1)c1cc(C)nn1C [Example 86, 4-[2-(4-cyclopropylmethanesulfonylphenyl)acetamido]-N-(1,3-dimethyl-1H-pyrazol-5-yl)-N-propylbenzamide] |
| ≤ 10 nM | CCN(C(=O)c1ccc(NC(=O)Cc2ccc(S(=O)(=O)NC3CC3)cc2)cc1)c1cccc(C)c1 [Example 46, 4-{2-[4-(cyclopropylsulfamoyl)phenyl]acetamido}-N-ethyl-N-(3-methylphenyl) benzamide] |
| ≤ 100 nM | O=C(Cc1ccc(S(=O)(=O)CC2CC2)cc1)Nc1ccc(C(=O)N2CCCC(c3ccccc3)C2)cc1 (stereo not drawn) [Example 48, 2-(4-cyclopropylmethanesulfonylphenyl)-N-[4-(3-phenylpiperidine-1-carbonyl)phenyl]acetamide] |
| ≤ 1000 nM | O=C(Cc1ccc(S(=O)(=O)CC2CC2)cc1)Nc1ccc(C(=O)N2CCc3ccccc32)cc1 [Example 41, 2-(4-cyclopropylmethanesulfonylphenyl)-N-[4-(2,3-dihydro-1H-indole-1-carbonyl)phenyl]acetamide] |
| ≤ 10 nM | Cc1cc(NC(=O)Cc2ccc(S(=O)(=O)CC3CC3)cc2)ccc1C(=O)N(C)c1ccccc1C [Example 163, 4-[2-(4-cyclopropylmethanesulfonylphenyl)acetamido]-N,2-dimethyl-N-(2-methylphenyl)benzamide] |
| ≤ 10 nM | CCN(C(=O)c1ccc(NC(=O)Cc2ccc(S(=O)(=O)CC3CC3)cc2)cc1F)c1ccccc1Cl [Example 118, N-(2-chlorophenyl)-4-[2-(4-cyclopropylmethanesulfonylphenyl)acetamido]-N-ethyl-2-fluorobenzamide] |
| ≤ 1000 nM | CC(C)CN(CC(C)C)C(=O)c1ccc(NC(=O)Cc2ccc(S(=O)(=O)NC3CC3)cc2)cc1 [Example 62, 4-{2-[4-(cyclopropylsulfamoyl)phenyl]acetamido}-N,N-bis(2-methylpropyl)benzamide] |
| ≤ 100 nM | CCN(C(=O)c1ccc(NC(=O)Cc2ccc(S(=O)(=O)CC3CC3)cc2)c(C)c1)c1ccccc1 [Example 105, 4-[2-(4-cyclopropylmethanesulfonylphenyl)acetamido]-N-ethyl-3-methyl-N-phenylbenzamide] |
| ≤ 1000 nM | CN(C(=O)c1ccc(NC(=O)Cc2ccc(S(=O)(=O)CC3CC3)cc2)cc1)C(C)(C)C [Example 26, N-tert-butyl-4-[2-(4-cyclopropylmethanesulfonylphenyl)acetamido]-N-methylbenzamide] |
| ≤ 100 nM | O=C(Cc1ccc(S(=O)(=O)CC2CC2)cc1)Nc1ccc(C(=O)N(c2ccccc2)c2ccc(Br)cc2)cc1 [Example 115, N-(4-bromophenyl)-4-[2-(4-cyclopropylmethanesulfonylphenyl)acetamido]-N-phenylbenzamide] |
| ≤ 10 nM | CCN(C(=O)c1ccc(NC(=O)Cc2ccc(S(=O)(=O)CC3CC3)cc2)cc1C)c1cccc(C)c1C [Example 164, 4-[2-(4-cyclopropylmethanesulfonylphenyl)acetamido]-N-(2,3-dimethylphenyl)-N-ethyl-2-methylbenzamide] |
| ≤ 100 nM | CC(NC(=O)c1ccc(NC(=O)Cc2ccc(S(=O)(=O)CC3CC3)cc2)cc1)c1ccccc1 (stereo not drawn) [Example 14, 4-[2-(4-cyclopropylmethanesulfonylphenyl)acetamido]-N-(1-phenylethyl)benzamide] |
